In series [1] the test system is Normal human renal cells. The series can be described thus: In vitro growth test on normal cells, renal cells. It counts as cell-based. How it is done: (§1) An appropriate amount of NFD was dissolved in DMSO to give a 1.0 mg/ml stock solution, which was diluted as necessary before use.
(§2) The following cells in the late logarithmic phase were harvested after treatment with trypsin (containing 0.25% trypsin and 0.02% EDTA; 37° C., 3 min) and used in the test: human lung adenocarcinoma cell lines A-549, VMRC-LCD and SK-LU-1, human lung squamous cell carcinoma Calu-1 cells, human colon adenocarcinoma WiDr cells, human prostate cancer LNCaP cells, human vaginal squamous cell carcinoma A-431 cells, human cervical carcinoma HeLa cells, human cholangiocarcinoma HuCC-T1 cells, mouse skin cancer melanoma B16 (M4) cells, human pancreatic carcinoma ASPC-1 cells, human neuroblastoma IMR-132 cells, human lung small cell carcinoma SCCH-194 cells, human uninary bladder carcinoma T24 cells, human renal cell carcinoma […] cells, human gastric cancer NUGC-2 cells, human thyroid carcinoma 8305C cells, human hepatoma HUH-7 cells, human ovarian carcinoma TYK-nu cells and human chorio carcinoma BeWo cells. Suspension cultures of human breast cancer MRK-nu-1 cells, human malignant B-cell lymphoma cells and human chronic myelogenous leukemia K562 cells were used to harvest the cells to be used in the test. […] These cells were plated onto a 96-well microplate at a density of 5-10×10^3 cells/cm^2 using DMEM or RPMI-1640 medium containing 10% fetal bovine serum and cultured for 24 hours in a conventional manner, after which a pre-determined amount of NFD dissolved in DMSO was added to each well. Cultivation was continued, and the number of viable cells was counted after 24, 48 and 72 hours. […]
(§3) Growth inhibitory action and lethal activity of NFD on various types of malignant tumor cells and normal human cells listed above were evaluated by counting the number of viable cells in each well of the 96-well microplate. […]

The subject of series [2] is Human chronic myelogenous leukemia K562 cells. The series can be described thus: In vitro antitumor test (trypan blue exclusion viable cell count), K562. It counts as cell-based. The conditions noted are these: 72 h, three days exposure, read-out: LD50 (IC50), 50% growth-inhibitory dose. How it is done:
as §1
as §2, with “cells.” for “cells. Suspension cultures of human breast cancer MRK-nu-1 cells, human malignant B-cell lymphoma cells and human chronic myelogenous leukemia K562 cells were used to harvest the cells to be used in the test.”, “well.” for “well. Cultivation was continued, and the number of viable cells was counted after 24, 48 and 72 hours.”

For series [3], the system named is Human lung adenocarcinoma A-549 cells. The series can be described thus: In vitro antitumor test (trypan blue exclusion viable cell count), A-549. It counts as cell-based. The conditions noted are these: A549, 72 h, three days exposure, read-out: LD50 (IC50), 50% growth-inhibitory dose. How it is done: as §1
as §2, with “cells.” for “cells. Suspension cultures of human breast cancer MRK-nu-1 cells, human malignant B-cell lymphoma cells and human chronic myelogenous leukemia K562 cells were used to harvest the cells to be used in the test.”, “well.” for “well. Cultivation was continued, and the number of viable cells was counted after 24, 48 and 72 hours.”

Series [4] concerns Human hepatoma HuH-7 cells. The series can be described thus: In vitro antitumor test (trypan blue exclusion viable cell count), HuH-7. The series is classed as cell-based. How it is done:
as §1
as §2, with “cells.” for “cells. Suspension cultures of human breast cancer MRK-nu-1 cells, human malignant B-cell lymphoma cells and human chronic myelogenous leukemia K562 cells were used to harvest the cells to be used in the test.”, “well.” for “well. Cultivation was continued, and the number of viable cells was counted after 24, 48 and 72 hours.”

Series [5] deals with lung adenomas in mice. The series can be described thus: Inhibition of two-step carcinogenesis in mouse lungs. It counts as in vivo, mouse (female ICR). The procedure:
Female ICR mice were used as test animals. Fifteen mice were housed in a cage and provided with the pellet diet and drinking water ad libitum. After one week of preliminary rearing, the six-week-old mice were given in the back a subcutaneous injection of 10 mg/kg body weight of 4-nitroquinoline-N-oxide (4NQO) dissolved in a mixture of olive oil and cholesterol (20:1). From five weeks after initiation, the mice were allowed to orally take 8% glycerol ad libitum as a carcinogenic promoter. The mice which received 4 NQO and 8% glycerol for 25 weeks served as a positive control. On the other hand, the mice in the test group were given ad libitum 8% glycerol containing 0.1 ng/ml of NFD for 25 weeks. Thirty weeks after the onset of the experiment, the mice were killed by cervical dislocation, and the lungs were removed after fixation with formalin under autopsy. Under a stereomicroscope, the adenomas formed in the lung were observed, and the number of adenomas was determined. The numbers were compared between the positive control and NFD-administered groups.

Series [6] has as its system Human ovarian carcinoma TYK-nu cells. The series can be described thus: In vitro antitumor test (trypan blue exclusion viable cell count), TYK-nu. The series is classed as cell-based. The procedure:
as §1, §2, §3

The subject of series [7] is Human colon adenocarcinoma WiDr cells. The series can be described thus: In vitro antitumor test (trypan blue exclusion viable cell count), WiDr. It counts as cell-based. The procedure: as §1, §2, §3

The structures appear in SMILES notation. ≈ marks a conversion by molar mass, not a printed value.

Take `CC(O)c1cc2c(o1)C(=O)c1cccc(O)c1C2=O` (stereo not drawn) [NFD, 2-(1-hydroxyethyl)-5-hydroxynaphtho[2,3-b]furan-4,9-dione]: in series [1] (FIG. 27, at concentrations which cause necrosis in tumor cells), the “adverse effects on growth of normal cells” value is recorded as “no adverse effects”. Further, in series [1] (FIG. 27, only at higher concentration), the “concentration inhibiting growth of normal renal cells” value turned out to be 100 ng/mL. The IC50 in series [1] (Homo sapiens, 72 h, normal renal cells, three days exposure, read-out: LD50 (IC50), 50% growth-inhibitory dose) came out at 0.065 µg/mL (≈ 0.252 µM); in series [2] it was 0.014 µg/mL (≈ 0.0542 µM); in series [3], 0.0095 µg/mL (≈ 0.0368 µM); in series [4] (72 h, HuH-7, three days exposure, read-out: LD50 (IC50), 50% growth-inhibitory dose) it was 0.0055 µg/mL (≈ 0.0213 µM); in series [6] (Homo sapiens, 72 h, TYK-nu, three days exposure, read-out: LD50 (IC50), 50% growth-inhibitory dose) it was 0.017 µg/mL (≈ 0.0658 µM); in series [7] (Homo sapiens, 72 h, WiDr, three days exposure, read-out: LD50 (IC50), 50% growth-inhibitory dose), 0.011 µg/mL (≈ 0.0426 µM). Further, the IC (almost complete) is 0.02 µg/mL in series [4] (Huh-7, FIG. 21, read-out: concentration inhibiting growth almost completely); 0.02 µg/mL in series [6] (Homo sapiens, FIG. 22, read-out: concentration inhibiting growth almost completely); 0.0224 to 0.0335 µg/mL in series [7] (Homo sapiens, WiDr, FIG. 5, read-out: concentration inhibiting growth almost completely). Also, the “inhibition of adenoma formation in the lung” value in series [5] (0.1 ng/ml NFD in 8% glycerol, versus positive control) is recorded as “significant inhibition”. For the same compound, the “expression percentage of lung adenomas, lower than that in the positive control group” value in series [5] (30th week after onset, versus 4NQO + 8% glycerol group) is recorded as 1/3. For the same compound, the results for the “concentration causing necrosis in almost all tumor cells” value in series [6] (FIG. 22) and in series [7] (FIG. 5) were not below 40 ng/mL and 44.7 to 55.9 ng/mL, respectively.

Source of the values: patent publication US5663197A, “2-(1-hydroxyethyl)-5-hydroxynaphtho[2,3-b]furan-4,9-dione and antitumor agents comprising this compound” (priority 1992, dated 1997).
